Source: US20260262643A1, “HERBICIDAL BENZOXAZINES” (FMC CORPORATION, priority 2022, published 2026)

What was measured:
[1] = tested on: ragweed; assay: Test C preemergence; format: in vivo, Ambrosia artemisiifolia; settings: 0 to 100 scale (0 no effect, 100 complete control)
Outline: (§1)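 Visual injury ratings on a 0–100 scale (100 = complete control) were made against untreated controls 10 days after treatment in the greenhouse. Compounds, formulated with surfactant in non-phytotoxic solvent, were sprayed on soil preemergence or onto one- to two-leaf plants 2–10 cm tall postemergence.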

[2] = tested on: sedge, umbrella; assay: Test D flooded paddy test; format: in vivo, Cyperus difformis; settings: 250 g ai/ha, applied to paddy water, visual rating after 13 to 14 days, scale 0 to 100 (0 no effect, 100 complete control)
Procedure: (§2) Plant species in the flooded paddy test selected from barnyardgrass (Echinochloa crus-galli), ducksalad (Heteranthera limosa), rice (Oryza sativa), and sedge, umbrella (small-flower umbrella sedge, Cyperus difformis) were grown to the 2-leaf stage for testing. At time of treatment, test pots were flooded to 3 cm above the soil surface, treated by application of test compounds directly to the paddy water, and then maintained at that water depth for the duration of the test. Treated plants and controls were maintained in a greenhouse for 13 to 14 days, after which time all species were compared to controls and visually evaluated. Plant response ratings, summarized in Table D, are based on a scale of 0 to 100 where 0 is no effect and 100 is complete control. A dash (-) response means no test result.

[3] = tested on: galium; assay: Test C postemergence; format: in vivo, Galium aparine; settings: 10 days
Outline: as §1

[4] = tested on: kochia; assay: Test C preemergence; format: in vivo, Bassia scoparia; settings: 0 to 100 scale (0 no effect, 100 complete control)
Outline: as §1

[5] = tested on: ryegrass, Italian; assay: Test C postemergence; format: in vivo, Lolium multiflorum; settings: 10 days
Outline: as §1

[6] = tested on: soybean; assay: Test C preemergence; format: in vivo, Glycine max; settings: 0 to 100 scale (0 no effect, 100 complete control)
Outline: as §1

[7] = tested on: oat, wild; assay: Test C postemergence; format: in vivo, Avena fatua; settings: 10 days
Outline: as §1

[8] = tested on: ducksalad; assay: Test D flooded paddy test; format: in vivo, Heteranthera limosa; settings: 250 g ai/ha, applied to paddy water, visual rating after 13 to 14 days, scale 0 to 100 (0 no effect, 100 complete control)
Procedure: as §2

[9] = tested on: pigweed, palmer; assay: Test C postemergence; format: in vivo, Amaranthus palmeri; settings: 10 days
Outline: as §1

[10] = tested on: blackgrass; assay: Test C postemergence; format: in vivo, Alopecurus myosuroides; settings: 10 days
Outline: as §1

[11] = tested on: ryegrass, Italian; assay: Test C preemergence; format: in vivo, Lolium multiflorum; settings: 0 to 100 scale (0 no effect, 100 complete control)
Outline: as §1

[12] = tested on: barnyardgrass; assay: Test C preemergence; format: in vivo, Echinochloa crusgalli; settings: 0 to 100 scale (0 no effect, 100 complete control)
Outline: as §1

[13] = tested on: corn; assay: Test C preemergence; format: in vivo, Zea mays; settings: 0 to 100 scale (0 no effect, 100 complete control)
Outline: as §1

[14] = tested on: soybean; assay: Test C postemergence; format: in vivo, Glycine max; settings: 10 days
Outline: as §1

[15] = tested on: wheat; assay: Test C postemergence; format: in vivo, Triticum aestivum; settings: 10 days
Outline: as §1

[16] = tested on: kochia; assay: Test C postemergence; format: in vivo, Bassia scoparia; settings: 10 days
Outline: as §1

[17] = tested on: green foxtail; assay: Test C preemergence; format: in vivo, Setaria viridis; settings: 0 to 100 scale (0 no effect, 100 complete control)
Outline: as §1

[18] = tested on: wheat; assay: Test C preemergence; format: in vivo, Triticum aestivum; settings: 0 to 100 scale (0 no effect, 100 complete control)
Outline: as §1

[19] = tested on: corn; assay: Test C postemergence; format: in vivo, Zea mays; settings: 10 days
Outline: as §1

[20] = tested on: barnyardgrass; assay: Test D flooded paddy test; format: in vivo, Echinochloa crus-galli; settings: 250 g ai/ha, applied to paddy water, visual rating after 13 to 14 days, scale 0 to 100 (0 no effect, 100 complete control)
Procedure: as §2

[21] = tested on: blackgrass; assay: Test C preemergence; format: in vivo, Alopecurus myosuroides; settings: 0 to 100 scale (0 no effect, 100 complete control)
Outline: as §1

[22] = tested on: rice; assay: Test D flooded paddy test; format: in vivo, Oryza sativa; settings: 250 g ai/ha, applied to paddy water, visual rating after 13 to 14 days, scale 0 to 100 (0 no effect, 100 complete control)
Procedure: as §2

[23] = tested on: horseweed; assay: Test C postemergence; format: in vivo, Erigeron canadensis; settings: 10 days
Outline: as §1

[24] = tested on: pigweed, palmer; assay: Test C preemergence; format: in vivo, Amaranthus palmeri; settings: 0 to 100 scale (0 no effect, 100 complete control)
Outline: as §1

[25] = tested on: oat, wild; assay: Test C preemergence; format: in vivo, Avena fatua; settings: 0 to 100 scale (0 no effect, 100 complete control)
Outline: as §1

[26] = tested on: barnyardgrass; assay: Test C postemergence; format: in vivo, Echinochloa crusgalli; settings: 10 days
Outline: as §1

[27] = tested on: ragweed; assay: Test C postemergence; format: in vivo, Ambrosia artemisiifolia; settings: 10 days
Outline: as §1

[28] = Preemergence, 500 g ai/ha, visual rating after 10 days
[29] = Test C, preemergence, 125 g ai/ha
[30] = 125 g ai/ha, postemergence, 0 to 100 scale, 0 no effect, 100 complete control
[31] = Postemergence, 500 g ai/ha, visual 0 to 100 scale (0 no effect, 100 complete control)

With `Cc1ccc(-n2cnc(C(C)(C)O)n2)cc1C(=O)N1C[C@H](C)Oc2c(C)cccc21` [Compound 256] the “Plant response rating, Ragweed” value [1, 28] was 90, the “Ragweed plant response rating” value [1, 29] was 70 and the “Plant response rating, Sedge, Umbrella (Flood)” value [2] was 98. For the same compound, the “Plant response rating, Galium” value [3, 30] was 100, the “Plant response rating, Galium” value [3, 31] was 100 and the “Plant response rating, Kochia” value [4, 28] was 90. The “Kochia plant response rating” value [4, 29] was 80, the “Plant response rating, Ryegrass, Italian” value [5, 30] was 90 and the “Plant response rating, Ryegrass, Italian” value [5, 31] was 100. For the same compound, the “Plant response rating, Soybean” value [6, 28] was 90, the “Soybean plant response rating” value [6, 29] was 100 and the “Plant response rating, Oat, Wild” value [7, 30] was 90. The “Plant response rating, Oat, Wild” value [7, 31] was 90, the “Plant response rating, Ducksalad (Flood)” value [8] was 98 and the “Plant response rating, Pigweed, Palmer” value [9, 30] was 80. For the same compound, the “Plant response rating, Pigweed, Palmer” value [9, 31] was 100, the “Plant response rating, Blackgrass” value [10, 30] was 90 and the “Plant response rating, Blackgrass” value [10, 31] was 90. For the same compound, the “Plant response rating, Ryegrass, Italian” value [11, 28] was 100, the “Ryegrass, Italian plant response rating” value [11, 29] was 90 and the “Plant response rating, Barnyardgrass” value [12, 28] was 100. The “Barnyardgrass plant response rating” value [12, 29] was 100, the “Plant response rating, Corn” value [13, 28] was 90 and the “Corn plant response rating” value [13, 29] was 50. For the same compound, the “Plant response rating, Soybean” value [14, 30] was 100, the “Plant response rating, Soybean” value [14, 31] was 100 and the “Plant response rating, Wheat” value [15, 30] was 80. The “Plant response rating, Wheat” value [15, 31] was 90, the “Plant response rating, Kochia” value [16, 30] was 60 and the “Plant response rating, Kochia” value [16, 31] was 80. For the same compound, the “Plant response rating, Foxtail, Green” value [17, 28] was 100, the “Foxtail, Green plant response rating” value [17, 29] was 100 and the “Plant response rating, Wheat” value [18, 28] was 90. For the same compound, the “Wheat plant response rating” value [18, 29] was 80, the “Plant response rating, Corn” value [19, 30] was 90 and the “Plant response rating, Corn” value [19, 31] was 90. For the same compound, the “Plant response rating, Barnyardgrass (Flood)” value [20] was 45, the “Plant response rating, Blackgrass” value [21, 28] was 90 and the “Blackgrass plant response rating” value [21, 29] was 70. The “Plant response rating, Rice (Flood)” value [22] was 35, the “Plant response rating, Horseweed” value [23, 30] was 30 and the “Plant response rating, Horseweed” value [23, 31] was 40. The “Plant response rating, Pigweed, Palmer” value [24, 28] was 100, the “Pigweed, Palmer plant response rating” value [24, 29] was 100 and the “Plant response rating, Oat, Wild” value [25, 28] was 90. The “Oat, Wild plant response rating” value [25, 29] was 90, the “Plant response rating, Barnyardgrass” value [26, 30] was 60 and the “Plant response rating, Barnyardgrass” value [26, 31] was 90. The “Plant response rating, Ragweed” value [27, 30] was 70 and the “Plant response rating, Ragweed” value [27, 31] was 80.
